Results on six compounds are retold here after ChEMBL document CHEMBL5212743, “Selectivity Literature for EUbOPEN Chemogenomics Library wave 3” (2023).

Molecules are shown by their SMILES.

The target in assay [1] is Tyrosine-protein kinase ABL1 (Homo sapiens, UniProt P00519). Briefly: Selectivity interaction (KinomeScan (DiscoverX)) EUB0000744a ABL1. As to conditions: at 100 nM.
For assay [2], the target named is Phosphatidylinositol 4,5-bisphosphate 3-kinase catalytic subunit alpha isoform (Homo sapiens, UniProt P42336). Kind of assay: Selectivity interaction (KinomeScan (DiscoverX)) EUB0000744a PIK3CA. As to conditions: at 100 nM.
The target in assay [3] is Calcium/calmodulin-dependent protein kinase kinase 1 (Homo sapiens) (UniProt Q8N5S9). Briefly: Selectivity interaction (KinomeScan (DiscoverX)) EUB0000167b CAMKK1. Conditions: at 1 µM.
For assay [4], the target named is Protein arginine N-methyltransferase 7 (Homo sapiens) (UniProt Q9NVM4). Kind of assay: Selectivity interaction (Methyltransferase panel) EUB0000226b PRMT7. Conditions: at 10 µM.
For assay [5], the target named is Epidermal growth factor receptor (Homo sapiens, UniProt P00533). Kind of assay: Selectivity interaction (KinomeScan (DiscoverX)) EUB0000722a EGFR. As to conditions: at 1 µM.
The target in assay [6] is Ribosomal protein S6 kinase alpha-5 (Homo sapiens) (UniProt O75582). Kind of assay: Selectivity interaction (KinomeScan (DiscoverX)) EUB0000722a RPS6KA5. As to conditions: at 1 µM.
Assay [7] addresses Cathepsin G (Homo sapiens) (UniProt P08311). Kind of assay: Selectivity interaction (Protease panel (enzymatic assay)) EUB0000239b CTSG. Conditions: at 10 µM.
Assay [8] relates to Phosphatidylinositol 4,5-bisphosphate 3-kinase catalytic subunit alpha isoform (Homo sapiens), P42336 [E545K]. Kind of assay: Selectivity interaction (KinomeScan (DiscoverX)) EUB0000239b PIK3CA. As to conditions: at 1 µM.
For assay [9], the target named is Microtubule-associated serine/threonine-protein kinase 1 (Homo sapiens) (UniProt Q9Y2H9). Kind of assay: Selectivity interaction (KinomeScan (DiscoverX)) EUB0000239b MAST1. Conditions: at 1 µM.
The subject of assay [10] is T1, Receptor-type tyrosine-protein kinase FLT3 (Homo sapiens), P36888 [N841I].
T1 sequence (whole entry): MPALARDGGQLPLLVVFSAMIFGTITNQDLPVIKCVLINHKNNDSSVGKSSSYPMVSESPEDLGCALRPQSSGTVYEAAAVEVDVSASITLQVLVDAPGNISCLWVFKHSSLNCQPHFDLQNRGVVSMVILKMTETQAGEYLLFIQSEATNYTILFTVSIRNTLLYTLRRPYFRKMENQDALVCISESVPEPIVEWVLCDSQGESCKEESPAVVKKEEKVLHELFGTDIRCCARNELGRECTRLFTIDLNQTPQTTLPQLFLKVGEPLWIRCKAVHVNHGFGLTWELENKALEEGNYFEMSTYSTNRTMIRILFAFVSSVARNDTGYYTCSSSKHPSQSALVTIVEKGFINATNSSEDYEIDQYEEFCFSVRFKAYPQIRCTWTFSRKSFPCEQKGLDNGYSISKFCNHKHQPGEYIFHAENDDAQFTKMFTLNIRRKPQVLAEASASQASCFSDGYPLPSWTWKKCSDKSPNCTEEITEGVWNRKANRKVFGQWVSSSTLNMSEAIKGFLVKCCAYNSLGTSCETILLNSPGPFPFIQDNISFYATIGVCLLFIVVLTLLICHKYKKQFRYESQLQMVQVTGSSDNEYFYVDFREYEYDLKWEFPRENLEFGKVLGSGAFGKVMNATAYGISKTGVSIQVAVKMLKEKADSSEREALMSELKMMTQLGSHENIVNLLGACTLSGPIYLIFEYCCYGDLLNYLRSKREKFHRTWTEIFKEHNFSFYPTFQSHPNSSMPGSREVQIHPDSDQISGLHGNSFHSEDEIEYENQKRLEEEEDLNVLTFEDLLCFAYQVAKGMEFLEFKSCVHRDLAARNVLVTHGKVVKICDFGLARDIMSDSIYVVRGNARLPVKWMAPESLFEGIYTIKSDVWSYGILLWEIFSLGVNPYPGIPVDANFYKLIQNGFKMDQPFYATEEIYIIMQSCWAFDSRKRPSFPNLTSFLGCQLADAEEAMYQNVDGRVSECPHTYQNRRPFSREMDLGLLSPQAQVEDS
Briefly: Selectivity interaction (KinomeScan (DiscoverX)) EUB0000239b FLT3. As to conditions: at 1 µM.

For assay [11], the target named is Homeodomain-interacting protein kinase 1 (Homo sapiens, UniProt Q86Z02). Kind of assay: Selectivity interaction (KinomeScan (DiscoverX)) EUB0000239b HIPK1. As to conditions: at 1 µM.
Assay [12] addresses Serine/threonine-protein kinase Nek3 (Homo sapiens) (UniProt P51956). Kind of assay: Selectivity interaction (KinomeScan (DiscoverX)) EUB0000239b NEK3. Conditions: at 1 µM.
Assay [13] has as its target Cyclin-dependent kinase 8 (Homo sapiens) (UniProt P49336). Briefly: Selectivity interaction (KinomeScan (DiscoverX)) EUB0000239b CDK8. As to conditions: at 1 µM.
In assay [14] the target is Sigma intracellular receptor 2 (Homo sapiens, UniProt Q5BJF2). Kind of assay: Selectivity interaction (GPCR panel (PDSP screen)) EUB0000239b TMEM97. As to conditions: at 10 µM.
The target of assay [15] is Sodium/nucleoside cotransporter 2 (Homo sapiens) (UniProt O43868). Briefly: Selectivity interaction (Enzyme panel (receptors, ion channels, enzymes, and transporters)) EUB0000239b SLC28A2. Conditions: at 10 µM.
Assay [16] addresses T2, Gamma-aminobutyric acid receptor subunit alpha-1 (Homo sapiens) (UniProt P14867).
T2 sequence (whole entry): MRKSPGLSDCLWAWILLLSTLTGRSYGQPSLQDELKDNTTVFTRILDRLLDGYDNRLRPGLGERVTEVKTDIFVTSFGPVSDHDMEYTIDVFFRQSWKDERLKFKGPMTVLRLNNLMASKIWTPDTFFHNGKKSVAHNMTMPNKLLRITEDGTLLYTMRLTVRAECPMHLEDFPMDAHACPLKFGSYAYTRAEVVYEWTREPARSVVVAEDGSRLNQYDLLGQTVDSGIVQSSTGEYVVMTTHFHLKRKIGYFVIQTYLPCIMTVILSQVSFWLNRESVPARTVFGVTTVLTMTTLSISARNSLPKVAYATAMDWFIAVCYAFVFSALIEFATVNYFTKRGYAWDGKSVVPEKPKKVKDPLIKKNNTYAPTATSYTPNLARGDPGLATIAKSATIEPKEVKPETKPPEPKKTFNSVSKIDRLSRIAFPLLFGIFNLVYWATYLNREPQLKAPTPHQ
Briefly: Selectivity interaction (GPCR panel (PDSP screen)) EUB0000546a GABRA1. Conditions: at 10 µM.

The target in assay [17] is Muscarinic acetylcholine receptor M3 (Homo sapiens) (UniProt P20309). Briefly: Selectivity interaction (GPCR panel (PDSP screen)) EUB0000546a CHRM3. Conditions: at 10 µM.
Chain of Muscarinic acetylcholine receptor M3 (Homo sapiens) (P20309 whole entry, looked up): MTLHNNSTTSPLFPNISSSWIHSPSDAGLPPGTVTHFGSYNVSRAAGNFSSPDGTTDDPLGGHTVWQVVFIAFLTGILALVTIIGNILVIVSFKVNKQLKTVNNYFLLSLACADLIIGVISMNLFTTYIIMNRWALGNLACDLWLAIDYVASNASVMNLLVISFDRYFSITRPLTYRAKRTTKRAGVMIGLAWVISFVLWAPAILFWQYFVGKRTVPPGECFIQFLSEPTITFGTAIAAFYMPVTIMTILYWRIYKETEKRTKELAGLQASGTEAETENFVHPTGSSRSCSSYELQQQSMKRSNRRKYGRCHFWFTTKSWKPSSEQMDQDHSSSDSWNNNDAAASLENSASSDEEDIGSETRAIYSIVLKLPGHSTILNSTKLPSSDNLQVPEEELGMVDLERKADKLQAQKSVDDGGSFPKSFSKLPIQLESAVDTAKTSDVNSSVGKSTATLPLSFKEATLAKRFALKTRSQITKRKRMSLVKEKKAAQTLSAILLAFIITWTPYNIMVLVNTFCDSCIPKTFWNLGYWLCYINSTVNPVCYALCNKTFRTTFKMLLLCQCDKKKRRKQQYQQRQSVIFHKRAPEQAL

Chain of Cathepsin G (Homo sapiens) (P08311 whole entry, canonical isoform): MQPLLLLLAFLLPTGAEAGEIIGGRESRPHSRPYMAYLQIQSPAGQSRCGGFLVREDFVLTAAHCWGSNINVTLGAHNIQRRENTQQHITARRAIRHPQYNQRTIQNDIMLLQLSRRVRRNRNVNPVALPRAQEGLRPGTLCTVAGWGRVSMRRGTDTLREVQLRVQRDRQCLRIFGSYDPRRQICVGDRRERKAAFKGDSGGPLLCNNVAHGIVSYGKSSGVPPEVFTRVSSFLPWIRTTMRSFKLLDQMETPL
Chain of Serine/threonine-protein kinase Nek3 (Homo sapiens) (P51956 whole entry): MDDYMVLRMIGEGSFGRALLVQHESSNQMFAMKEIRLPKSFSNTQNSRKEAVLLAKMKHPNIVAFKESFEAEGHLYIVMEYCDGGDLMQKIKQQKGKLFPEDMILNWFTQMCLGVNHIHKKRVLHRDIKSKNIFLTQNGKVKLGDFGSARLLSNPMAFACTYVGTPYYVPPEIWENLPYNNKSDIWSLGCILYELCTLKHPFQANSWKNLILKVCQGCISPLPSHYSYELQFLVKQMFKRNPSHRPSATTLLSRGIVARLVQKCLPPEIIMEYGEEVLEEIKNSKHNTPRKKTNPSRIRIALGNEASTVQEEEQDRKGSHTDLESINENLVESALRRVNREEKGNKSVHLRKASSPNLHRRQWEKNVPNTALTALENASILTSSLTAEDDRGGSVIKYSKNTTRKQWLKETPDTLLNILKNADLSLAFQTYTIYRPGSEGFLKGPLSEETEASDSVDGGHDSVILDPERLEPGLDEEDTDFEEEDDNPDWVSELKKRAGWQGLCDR
Chain of Ribosomal protein S6 kinase alpha-5 (Homo sapiens) (O75582 whole entry, looked up): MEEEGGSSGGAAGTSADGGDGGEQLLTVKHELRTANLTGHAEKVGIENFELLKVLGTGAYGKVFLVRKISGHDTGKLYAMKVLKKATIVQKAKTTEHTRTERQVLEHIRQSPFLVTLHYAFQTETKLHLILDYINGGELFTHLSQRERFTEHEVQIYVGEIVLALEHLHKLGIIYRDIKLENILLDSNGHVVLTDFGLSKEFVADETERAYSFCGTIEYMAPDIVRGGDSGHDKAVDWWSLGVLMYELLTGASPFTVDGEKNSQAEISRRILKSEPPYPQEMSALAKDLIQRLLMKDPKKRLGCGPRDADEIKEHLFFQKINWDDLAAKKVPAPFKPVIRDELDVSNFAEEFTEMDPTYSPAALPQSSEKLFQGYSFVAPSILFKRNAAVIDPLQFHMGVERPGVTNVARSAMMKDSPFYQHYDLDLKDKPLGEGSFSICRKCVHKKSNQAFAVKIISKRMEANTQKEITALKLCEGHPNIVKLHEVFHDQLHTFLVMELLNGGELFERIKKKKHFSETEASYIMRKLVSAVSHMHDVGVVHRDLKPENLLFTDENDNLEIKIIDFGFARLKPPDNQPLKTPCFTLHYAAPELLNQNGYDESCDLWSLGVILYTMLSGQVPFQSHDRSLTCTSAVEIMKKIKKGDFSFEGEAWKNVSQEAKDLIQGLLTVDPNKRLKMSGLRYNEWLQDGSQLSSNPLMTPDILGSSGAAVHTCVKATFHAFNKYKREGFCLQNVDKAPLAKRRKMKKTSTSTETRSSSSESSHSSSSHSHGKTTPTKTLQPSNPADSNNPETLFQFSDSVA
Chain of Protein arginine N-methyltransferase 7 (Homo sapiens) (Q9NVM4 whole entry): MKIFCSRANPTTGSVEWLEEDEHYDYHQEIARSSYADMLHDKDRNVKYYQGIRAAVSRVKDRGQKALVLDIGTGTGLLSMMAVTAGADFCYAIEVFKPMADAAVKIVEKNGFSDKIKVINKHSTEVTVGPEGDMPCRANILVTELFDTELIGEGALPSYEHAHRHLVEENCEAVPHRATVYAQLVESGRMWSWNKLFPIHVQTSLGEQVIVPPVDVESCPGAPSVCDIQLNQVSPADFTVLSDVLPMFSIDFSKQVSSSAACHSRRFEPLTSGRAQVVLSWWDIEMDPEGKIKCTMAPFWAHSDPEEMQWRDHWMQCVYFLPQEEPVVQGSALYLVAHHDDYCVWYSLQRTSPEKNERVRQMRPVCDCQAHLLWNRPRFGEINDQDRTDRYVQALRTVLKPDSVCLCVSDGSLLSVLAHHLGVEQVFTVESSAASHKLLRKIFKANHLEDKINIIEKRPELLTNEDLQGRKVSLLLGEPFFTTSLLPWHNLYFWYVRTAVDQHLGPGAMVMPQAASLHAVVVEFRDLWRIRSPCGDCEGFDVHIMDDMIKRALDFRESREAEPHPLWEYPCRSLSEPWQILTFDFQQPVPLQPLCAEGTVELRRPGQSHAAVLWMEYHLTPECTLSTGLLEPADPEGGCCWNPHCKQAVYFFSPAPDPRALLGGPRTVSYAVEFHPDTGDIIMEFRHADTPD
Chain of Microtubule-associated serine/threonine-protein kinase 1 (Homo sapiens) (Q9Y2H9 whole entry, looked up): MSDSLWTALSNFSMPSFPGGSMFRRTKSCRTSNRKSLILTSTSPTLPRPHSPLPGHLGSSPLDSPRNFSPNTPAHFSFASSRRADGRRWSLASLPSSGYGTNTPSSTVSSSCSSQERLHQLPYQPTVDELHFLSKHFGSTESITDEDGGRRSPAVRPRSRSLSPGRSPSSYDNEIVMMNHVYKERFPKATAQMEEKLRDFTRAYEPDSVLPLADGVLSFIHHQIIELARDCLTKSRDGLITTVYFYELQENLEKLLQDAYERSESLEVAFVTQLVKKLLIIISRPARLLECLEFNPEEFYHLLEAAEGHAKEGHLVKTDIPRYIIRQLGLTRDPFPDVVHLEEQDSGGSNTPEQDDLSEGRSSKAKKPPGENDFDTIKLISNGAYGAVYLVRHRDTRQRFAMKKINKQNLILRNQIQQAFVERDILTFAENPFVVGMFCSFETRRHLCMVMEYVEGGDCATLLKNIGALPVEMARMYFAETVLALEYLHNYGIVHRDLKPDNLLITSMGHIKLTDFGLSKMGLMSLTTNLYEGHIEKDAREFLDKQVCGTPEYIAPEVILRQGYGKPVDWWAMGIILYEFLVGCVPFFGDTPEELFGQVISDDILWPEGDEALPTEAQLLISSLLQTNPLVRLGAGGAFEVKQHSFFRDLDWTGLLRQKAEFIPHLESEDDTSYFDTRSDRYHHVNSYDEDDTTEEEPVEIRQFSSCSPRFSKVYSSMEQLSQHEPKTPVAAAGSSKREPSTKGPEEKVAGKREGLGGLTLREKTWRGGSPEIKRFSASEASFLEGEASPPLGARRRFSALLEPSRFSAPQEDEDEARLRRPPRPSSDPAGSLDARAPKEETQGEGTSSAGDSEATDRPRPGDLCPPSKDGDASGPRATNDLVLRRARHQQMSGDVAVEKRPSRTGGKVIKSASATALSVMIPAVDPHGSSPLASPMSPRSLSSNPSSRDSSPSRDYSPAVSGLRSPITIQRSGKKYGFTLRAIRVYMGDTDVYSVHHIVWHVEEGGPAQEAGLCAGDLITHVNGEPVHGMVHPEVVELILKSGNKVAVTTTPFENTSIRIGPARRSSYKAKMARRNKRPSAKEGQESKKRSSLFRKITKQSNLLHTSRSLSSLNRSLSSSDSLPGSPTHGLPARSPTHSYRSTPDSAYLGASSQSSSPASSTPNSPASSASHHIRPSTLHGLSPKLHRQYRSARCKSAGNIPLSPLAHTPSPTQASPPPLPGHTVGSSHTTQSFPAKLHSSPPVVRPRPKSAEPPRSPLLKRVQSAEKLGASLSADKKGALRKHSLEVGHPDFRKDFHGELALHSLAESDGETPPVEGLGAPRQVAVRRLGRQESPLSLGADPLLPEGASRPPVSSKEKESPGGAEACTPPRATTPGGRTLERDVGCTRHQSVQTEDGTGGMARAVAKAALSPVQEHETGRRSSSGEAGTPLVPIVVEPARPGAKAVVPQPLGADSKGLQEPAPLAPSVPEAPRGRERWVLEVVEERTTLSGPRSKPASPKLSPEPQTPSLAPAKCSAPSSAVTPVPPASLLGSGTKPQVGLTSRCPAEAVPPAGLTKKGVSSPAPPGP
Chain of Sigma intracellular receptor 2 (Q5BJF2 whole entry): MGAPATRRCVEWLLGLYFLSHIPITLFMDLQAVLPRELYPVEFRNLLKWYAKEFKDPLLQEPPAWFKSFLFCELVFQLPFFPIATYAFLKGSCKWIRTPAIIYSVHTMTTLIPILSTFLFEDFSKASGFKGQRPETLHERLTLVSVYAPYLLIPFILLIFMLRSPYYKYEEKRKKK

As to `CC(C)CC(=O)N1CCc2nc(-c3ccc(Br)cc3)nc(N(C)Cc3ccccc3)c2C1`, the % of control in assay [1] and in assay [2] was 53% in each case.

For the compound `Cc1cccc(-c2cnc3occ(-c4ccc(C(=O)O)c(C5CCCC5)c4)c3c2)c1`, the % of control in assay [3] was 12%.

As to `Nc1ncnc2c1ccn2[C@@H]1O[C@H]([C@H](O)c2ccccc2)[C@@H](O)[C@H]1O`, the % activity remaining in [4] was 75%.

On to `CCN(Cc1ccc(Cl)cc1)c1ncc(C(=O)NCCCN2CCCC2=O)c(NC2CCCC2)n1`, for which the % of control in [5] came to 27%; in [6], 35%.

Regarding `CO[C@@H](C)c1c(Nc2ccc([C@H](N(C)C(=O)C3CCS(=O)(=O)CC3)C(F)(F)F)cc2)cnc2cc(Cl)nn12`, the % of inhibition in assay [7] turned out to be 7%; in assay [14], 49.9%; in assay [15] it was 52%. For the same compound, the % of control in assay [8] turned out to be 48%; in [9] it was 43%; in assay [10], 23%; in assay [11], 40%; in assay [12], 40%; in [13] it was 39%.

For `C[C@H](c1ccc(F)cc1)N(Cc1ccc(Cl)c(C(=O)O)c1)C(=O)c1cnc2ccccc2c1`, the % of inhibition came to 28% in assay [16] and 39% in [17].
